{"source": "patent US8652467B2", "about": "“Dek protein compositions and methods of using the same” (The Regents of the University of Michigan, priority 2005, dated 2014)", "molecules": {"B1": {"name": "IFN-γ: inflammatory mediator (protein, UniProt P01579 24-161, looked up)", "Interferon gamma": "QDPYVKEAENLKKYFNAGHSDVADNGTLFLGILKNWKEESDRKIMQSQIVSFYFKLFKNFKDDQSIQKSVETIKEDMNVKFFNSNKKKRDDFEKLTNYSVTDLNVQRKAIHELIQVMAELSPAAKTGKRKRSQMLFRG"}}, "key": {"[1]": {"test_system": "monocyte-derived macrophages (MDM)", "experiment": "DEK secretion by serum-differentiated MDM, Western blot of supernatants", "format": "cell-based, human", "conditions": "for amount of DEK found in culture supernatants: treatment of MDM with Golgi inhibitors", "method": "MDM were prepared as described (See, e.g., Lane et al., J Immunol 163, 3653-61. (1999)). Briefly, heparinized venous blood was collected from healthy volunteers, and peripheral blood mononuclear cells (PBMC) were separated by Ficoll-Hypaque (Amersham Pharmacia Biotech AB, Uppsala, Sweden) density gradient centrifugation. MDM were purified by adherence to plastic for 2 h at 37° C. at a concentration of 5×10^5/ml. Adherent cells were consistently >90% monocytes (See, e.g., Lane et al., J Immunol 163, 3653-61. (1999)). […]\nMDMs were maintained for 12 h in serum-free conditioned media with added dexamethasone, (0.5 μM or 1 μM) (Sigma St. Louis, Mo.), cyclosporin A (CsA, 1 μg/ml) (Sigma St. Louis, Mo.), carbonyl cyanide chlorophenyl hydrazone (CCCP) (10 μM) (Sigma St. Louis, Mo.), IL-8 (10 ng/ml) (R&D Systems, Minneapolis, Minn.) or TBB (See, e.g., Sarno et al., Pharmacol Ther 93, 159-68 (2002)) for 3 hours. Following 3 washes with PBS, serum-free media was added for 3 to 12 h before harvest. The viability of the cells incubated in serum-free medium with or without added drugs was >95% at 48 h as measured by MTT-based colorimetric assay (Boehringer Mannheim, Indianapolis, Ind.) and by LDH release as previously described (See, e.g., Punturieri et al., J Exp Med 192, 789-99. (2000)). Supernatants were collected and centrifuged for 20 min at 200×g to remove cell debris, then concentrated by a centrifugal filter device (Millipore) in the presence of a protease inhibitor cocktail (Boehringer Mannheim, Indianapolis, Ind.). Equal amounts of protein (20 μg) were loaded under reducing conditions and proteins were separated by 10% SDS-PAGE. The proteins were subsequently transferred to nitrocellulose and probed with mouse monoclonal anti-DEK or rabbit or goat polyclonal anti-DEK antibodies. The bound primary antibody was then detected with horseradish peroxidase-conjugated goat anti-mouse or anti-rabbit secondary antibody using the Super Signal West Pico system (Pierce Chemical Co, Rockford, Ill.)."}, "[2]": {"test_system": "purified neutrophils (PMN)", "experiment": "In vitro migration assay with purified neutrophils", "format": "cell-based, human", "conditions": "SB225002 3 μM, 1 h", "method": "Purified neutrophils (PMN) were treated with IL-8 (50 nM), the CXCR2 small molecule inhibitor SB225002 (3 μM), DEK (79 nM), IL-8 plus SB225002, or DEK plus SB225002 for 5 min at room temperature before and then during the migration assay. After 1 h, the number of fluorescently labeled migrating cells in the lower chamber was determined at 485 nM/535 nm wavelengths by Tecan GENios (Phenix, Austria). […] The results are expressed as the average fold increase in the number of cells migrating toward DEK compared to control wells containing medium only. White blood cells were isolated from venous blood from healthy donors as described above, and were depleted of monocytes by adherence to plastic for 2 h as described in the Cell Preparation section. […] The cells were washed and resuspended at 1×10^6 cells/ml in serum-free RPMI medium, and 1×10^5 labeled cells in 100 μl were added to the upper chamber of a 24-well Transwell chemotaxis insert with pore size of 3 μm or 5 μm (Corning, N.Y.). The lower chambers contained serum-free RPMI medium alone, recombinant DEK made in baculovirus, or a deletion mutant of the β form of human GLI-2 (See, e.g., Smith et al., J Virol 75, 2301-13 (2001)) produced in baculovirus as the control protein. After 30 min to 1 h, the number of fluorescently labeled migrating cells in the lower chamber was determined at […] wavelength using a Tecan GENios plate-reader (Phenix, Austria). The results were expressed as the average fold increase of the number of cells migrating toward lower chambers containing DEK divided by the number of cells migrating toward the control wells (medium alone). Forty ml of venous blood was collected from healthy volunteers into a 50 ml sterile syringe containing a mixture of 7 ml 0.25 M Citrate (0.17 M NA Citrate and 0.083 M Citric Acid) and 6% Dextran in PBS buffer. The blood was incubated for 30 min at room temperature and the upper phase was collected and further separated by Ficoll as described above. The neutrophil fraction was collected and washed with HBSS buffer and then pelleted again. […]"}, "CXCR2": {"target": "T1, CXCR2 (Homo sapiens, UniProt P25025)", "T1 sequence (P25025 1-360)": "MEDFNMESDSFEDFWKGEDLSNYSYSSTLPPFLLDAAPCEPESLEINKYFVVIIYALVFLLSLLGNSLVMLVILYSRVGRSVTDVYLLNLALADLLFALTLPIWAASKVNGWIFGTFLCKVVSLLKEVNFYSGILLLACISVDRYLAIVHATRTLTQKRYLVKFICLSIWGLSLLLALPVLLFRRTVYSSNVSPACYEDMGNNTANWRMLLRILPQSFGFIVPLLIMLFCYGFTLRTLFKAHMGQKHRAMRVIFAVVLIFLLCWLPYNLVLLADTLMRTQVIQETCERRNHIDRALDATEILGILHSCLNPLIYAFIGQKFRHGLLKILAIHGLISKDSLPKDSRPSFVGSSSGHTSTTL", "conditions": "at low concentrations; cited from earlier work"}, "Jurkat cells": {"test_system": "Jurkat cells", "experiment": "FAS-L induced apoptosis assay, DEK release into cytoplasm", "format": "cell-based", "conditions": "Fas Ligand-mediated apoptosis, 3% FAS-L, 180 min", "method": "Jurkat cells were washed with serum-free RPMI medium and incubated with 3% FAS-L without or with the broad-spectrum caspase inhibitor zVAD for 180 min. Cells were fractionated and the cytoplasm was separated by SDS-PAGE followed by immunoblotting with DEK specific antibodies (mouse monoclonal, BD Bioscience). As a loading control the same blot was reprobed with specific antibodies to beta-actin."}, "[3]": {"test_system": "Jurkat control and DEK-knockdown cells", "experiment": "DEK knock-down and DNA damage assay (Annexin-V)", "format": "cell-based", "conditions": "increasing doses, 24 hours", "method": "Jurkat and HeLa S3 cells were transduced with either an empty lentiviral vector, or a vector containing two DEK-specific shRNAs. Control and DEK-knockdown Jurkat cells were exposed to increasing doses of UVC radiation. Twenty-four hours after irradiation, the percentage of apoptotic cells was determined by staining with Annexin-V and analysis by flow cytometry. HeLa S3 control and DEK-knockdown cells were similarly treated with increasing doses of UVC radiation. Cells were fixed, permeabilized, and stained with R-phycoerythrin labeled antibodies against the active form of caspase-3 twenty-four hours after irradiation. The percentage of cells expressing the active form of caspase-3 was determined by flow cytometry. Jurkat control and DEK-knockdown transduced cells were treated with either etoposide or cisplatin at increasing doses and 24 hours later the percentage of apoptotic cells was determined by staining with Annexin-V."}, "[4]": {"conditions": "MDM in 10% human serum, TNF-α 5-100 ng/ml, IFN-γ 10-100 ng/ml, MCP-1 10-100 ng/ml, LPS 500-1000 ng/ml alone and with IFN-γ"}}, "note": "“Also recorded” adds a separate entry of the source. Peptide text beside a SMILES is read from it. * marks the point of attachment. Cbz = O=C(OCc1ccccc1)*; CH2F = FC*", "data": [{"molecule": "C[C@H]1CCC/C=C/[C@@H]2C[C@H](O)C[C@H]2[C@H](O)/C=C/C(=O)O1", "note": "[Brefeldin A]", "values": [{"measurement": "amount of DEK found in culture supernatants", "setting": "[1]", "result": "does not alter"}]}, {"molecule": "O=C(Nc1ccc([N+](=O)[O-])cc1O)Nc1ccccc1Br", "note": "[SB225002]", "values": [{"measurement": "neutrophil migration toward DEK", "setting": "[2]; DEK 79 nM", "result": "significantly blocked; also recorded: virtually complete inhibition"}, {"measurement": "neutrophil migration toward IL-8", "setting": "[2]; IL-8 50 nM", "result": "significantly blocked; also recorded: virtually complete inhibition"}, {"measurement": "receptor selectivity", "setting": "CXCR2", "result": "selective for CXCR2"}]}, {"molecule": "Brc1c(Br)c(Br)c2[nH]nnc2c1Br", "note": "[TBB, 4,5,6,7-tetrabromobenzotriazole]", "values": [{"measurement": "inhibition of DEK secretion", "setting": "[1]; 12-day MDM treated with TBB", "result": "complete inhibition"}, {"measurement": "amount of extracellular DEK from TBB-treated cells vs untreated cells", "setting": "[1]; 12 hours after removal of TBB", "result": "significantly lower"}, {"measurement": "DEK in supernatants collected during the first 3 hours of incubation in serum free media", "setting": "[1]; three-hour treatment of 8-day MDM with TBB (50 μM)", "result": "absent"}]}, {"molecule": "CC(NC(=O)C(NC(=O)OCc1ccccc1)C(C)C)C(=O)NC(CC(=O)O)C(=O)CF", "note": "(stereo not drawn) [ZVAD] (Cbz-Val-Ala-Asp-CH2F; configuration not given here)", "values": [{"measurement": "release of DEK into the cytoplasm", "setting": "Jurkat cells", "result": "blocks"}]}, {"molecule": "N.N.[Cl][Pt][Cl]", "note": "[cisplatinum]", "values": [{"measurement": "sensitivity of DEK knock-down cells vs control cells (apoptosis)", "setting": "[3]", "result": "consistently more sensitive"}]}, {"molecule": "COc1cc([C@@H]2c3cc4c(cc3[C@@H](O[C@@H]3O[C@@H]5CO[C@@H](C)O[C@H]5[C@H](O)[C@H]3O)[C@H]3COC(=O)[C@H]23)OCO4)cc(OC)c1O", "note": "[etoposide]", "values": [{"measurement": "sensitivity of DEK knock-down cells vs control cells (apoptosis)", "setting": "[3]", "result": "consistently more sensitive"}]}, {"molecule": "CC[C@@]1([C@@H]2O[C@@H]([C@H]3O[C@@](O)(CO)[C@H](C)C[C@@H]3C)C[C@@H]2C)CC[C@H]([C@]2(C)CC[C@]3(C[C@H](O)[C@@H](C)[C@@H]([C@@H](C)[C@@H](OC)[C@H](C)C(=O)O)O3)O2)O1", "note": "[monensin]", "values": [{"measurement": "amount of DEK found in culture supernatants", "setting": "[1]", "result": "does not alter"}]}, {"molecule": "IL-8: recombinant IL-8, chemokine, neutrophil chemoattractant", "values": [{"measurement": "stimulation of DEK secretion", "setting": "[1]; IL-8 10 ng/ml, 12 h, day 12 MDM grown in 10% human serum", "result": "induces the secretion of DEK; also recorded: effective in stimulating vigorous secretion of DEK"}]}, {"molecule": "MCP-1: monocyte chemoattractant protein-1", "values": [{"measurement": "stimulation of DEK secretion", "setting": "[1]; [4]", "result": "None of the inflammatory mediators listed above reproducibly stimulated DEK secretion"}]}, {"molecule": "TNF-α", "values": [{"measurement": "stimulation of DEK secretion", "setting": "[1]; [4]", "result": "None of the inflammatory mediators listed above reproducibly stimulated DEK secretion"}]}, {"molecule": "lipopolysaccharide [LPS]", "values": [{"measurement": "stimulation of DEK secretion", "setting": "[1]; [4]", "result": "None of the inflammatory mediators listed above reproducibly stimulated DEK secretion"}]}, {"molecule": "tunicamycin", "values": [{"measurement": "DEK secretion", "setting": "[1]; treatment of MDM with tunicamycin (inhibits N-glycosylation)", "result": "not inhibited"}]}, {"molecule": "B1", "values": [{"measurement": "stimulation of DEK secretion", "setting": "[1]; [4]", "result": "None of the inflammatory mediators listed above reproducibly stimulated DEK secretion"}]}]}
